One data set relates to MCF7. Description: Growth inhibition of human MCF7 cells after 48 hrs by sulforhodamine B assay. Type of data set: functional. The note with it: MCF7, 48 h.
Data set [1] can be described thus: Growth inhibition of human A375-C5 cells after 48 hrs by sulforhodamine B assay. Type of data set: functional. The note with it: A375-C5, 48 h.
The subject of another data set is NCI-H460. Put plainly: Growth inhibition of human NCI-H460 cells after 48 hrs by sulforhodamine B assay. Type of data set: functional. Conditions: NCI-H460, 48 h.
The test system of data set [2] is HL-60. Description: Growth inhibition of human HL60 cells after 48 hrs by sulforhodamine B assay. Type of data set: functional. Conditions: HL-60, 48 h.
Data set [3] can be described thus: Micelles-buffer partition coefficient, log K of the compound after 30 mins at pH 7.4 by UV-vis spectrophotometric analysis. Type of data set: physicochemical. The note with it: pH 7.4, 0.5 h.
Data set [4] is described as follows: Thermodynamic solubility of the compound after 24 hrs at pH 7.4 by spectrophotometric analysis. Type of data set: physicochemical. Conditions: buffer, read-out: Therm_solubility.
A short description of data set [5]: Liposomes-buffer partition coefficient, log K of the compound after 30 mins at pH 7.4 by UV-vis spectrophotometric analysis. Type of data set: physicochemical. The note with it: artificial membrane, pH 7.4, 0.5 h.
In data set [6] the test system is HL-60. Put plainly: Cytotoxicity against human HL60 cells after 24 to 72 hrs by trypan blue exclusion assay. It counts as functional, cell-based.

pIC50: −log10 of the molar value. Converted amounts (≈) assume the structure as drawn.

Regarding `COc1c2c(cc3c(=O)c4cc(Cl)ccc4oc13)OC(C)(C)C=C2`, the GI50 is greater than 150 µM in the data set with MCF7, greater than 150 µM in data set [1], greater than 150 µM in the data set on NCI-H460 and 14.1 µM with HL-60 [2]. Moreover, in data set [3], the “log K” value was 4.34.
On to `CC1(C)CCc2cc3c(=O)c4cc(Cl)ccc4oc3c(O)c2O1`, for which the GI50 was greater than 150 µM in the data set on MCF7, greater than 150 µM in data set [1], greater than 150 µM in the data set with NCI-H460 and 9 µM with HL-60 [2]. The “log K” value in data set [3] amounted to 4.39. The solubility thermodynamic at 24 h in data set [4] is less than 0.1 µM.
As to `COc1ccc2oc3c(O)c4c(cc3c(=O)c2c1)CCC(C)(C)O4`, the GI50 in the data set with MCF7 is greater than 150 µM; in data set [1], greater than 150 µM; in the data set on NCI-H460, greater than 150 µM; in the data set on HL-60 [2], 23.9 µM. Further, the results for the “log K” value in data set [3] and in data set [5] were 3.35 and 3.25, respectively. Further, the solubility thermodynamic at 24 h in data set [4] is less than 0.1 µM.
In the case of `Cc1ccc2oc3c(O)c4c(cc3c(=O)c2c1)CCC(C)(C)O4`, the GI50 with MCF7 was greater than 150 µM; in data set [1] it was 17.6 µM; in the data set with NCI-H460, 48.1 µM; with HL-60 [2] it was 12.5 µM. Also, the “log K” value is 3.92 in data set [3] and 3.86 in data set [5]. Also, the solubility thermodynamic at 24 h in data set [4] is less than 0.1 µM.
With `COc1cccc2c(=O)c3cc4c(c(O)c3oc12)OC(C)(C)CC4`, the GI50 in data set [1] was determined as 68 µM; with NCI-H460, 41.1 µM; in the data set on HL-60 [2], 27.3 µM. Besides, the entries for the “log K” value in data set [3] and in data set [5] were 3.58 and 3.53, respectively. The solubility thermodynamic at 24 h in data set [4] came to 0.23 µM (≈ 0.0751 µg/mL).
`CC1(C)CCc2cc3c(=O)c4ccc(O)cc4oc3c(O)c2O1`: the GI50 with MCF7 amounted to 82.5 µM; in data set [1] it was 40.7 µM; with NCI-H460, 59.1 µM; in the data set on HL-60 [2], 57 µM. For the same compound, the “log K” value in data set [3] came out at 3.76; in data set [5], 3.32. Also, the solubility thermodynamic at 24 h in data set [4] is 0.62 µM (≈ 0.194 µg/mL).
Consider `COc1c2c(cc3c(=O)c4cc(C)ccc4oc13)CCC(C)(C)O2`, for which the GI50 is 31.8 µM with MCF7, 29.7 µM in data set [1], 30.9 µM in the data set on NCI-H460 and 5.14 µM in the data set on HL-60 [2]. Moreover, the figures for the “log K” value in data set [3] and in data set [5] were 4.01 and 4.02, respectively.
As for `COc1c2c(cc3c(=O)c4ccc(O)cc4oc13)CCC(C)(C)O2`, the GI50 was greater than 150 µM with MCF7, greater than 150 µM in data set [1], greater than 150 µM in the data set with NCI-H460 and 8.3 µM in the data set on HL-60 [2]. Besides, the “log K” value in data set [3] is recorded as 3.49; in data set [5] it was 3.43.
`COc1cc2oc3c(OC)c4c(cc3c(=O)c2cc1OC)CCC(C)(C)O4`: the GI50 in the data set with MCF7 was greater than 100 µM; in data set [1] it was greater than 100 µM; in the data set on NCI-H460 it was greater than 100 µM; in the data set on HL-60 [2], 72.3 µM. The “log K” value in data set [3] turned out to be 3.88.
Regarding `COc1ccc2oc3c(OC)c4c(cc3c(=O)c2c1)OC(C)(C)C=C4`, the GI50 (with MCF7; in data set [1]; in the data set with NCI-H460) was greater than 150 µM in each case. Moreover, the “log K” value in data set [3] worked out at 4.21.
On to `COc1c2c(cc3c(=O)c4cc(C)ccc4oc13)OC(C)(C)C=C2`, for which the GI50 (with MCF7; in data set [1]; in the data set on NCI-H460; in the data set with HL-60 [2]) was greater than 50 µM each time. The “log K” value in data set [3] is 4.29; in data set [5], 4.32.
As for `COc1c2c(cc3c(=O)c4ccc(O)cc4oc13)OC(C)(C)C=C2`, the GI50 was 36.9 µM in the data set with MCF7, 27.1 µM in data set [1], 34.9 µM in the data set with NCI-H460 and 18.8 µM with HL-60 [2]. Also, the “log K” value in data set [3] was 3.9.
Turning to `CCN(CC)c1ccc2c(=O)c3cc4c(c(OC)c3oc2c1)C=CC(C)(C)O4`, the GI50 worked out at 34.3 µM with MCF7, 21.9 µM in data set [1], 26.8 µM with NCI-H460 and 9.2 µM with HL-60 [2].
As to `COc1c2c(cc3c(=O)c4cc(Cl)ccc4oc13)OC(C)(C)CC2`, the GI50 was greater than 75 µM with MCF7, greater than 75 µM in data set [1], greater than 75 µM in the data set with NCI-H460 and 48.4 µM in the data set with HL-60 [2]. Besides, the “log K” value in data set [3] is reported as 4.41; in data set [5], 4.48.
For `COc1cc2oc3c(OC)c4c(cc3c(=O)c2cc1OC)OC(C)(C)CC4`, the concentration for 50% growth inhibition (GI50) (in the data set with MCF7; in data set [1]; in the data set on NCI-H460) was greater than 75 µM in each case. The “log K” value was 3.83 in data set [3] and 3.88 in data set [5].
Turning to `CCN(CC)c1ccc2c(=O)c3cc4c(c(OC)c3oc2c1)CCC(C)(C)O4`, the GI50 in the data set with MCF7 came out at 14.5 µM; in data set [1] it was 19.6 µM; in the data set with NCI-H460, 13.7 µM; with HL-60 [2], 14.4 µM. Besides, the “log K” value in data set [3] was found to be 4.7; in data set [5], 4.62.
For the compound `COc1c2c(cc3c(=O)c4ccccc4oc13)CCC(C)(C)O2`, the GI50 in the data set with MCF7 is greater than 150 µM; in data set [1] it was greater than 150 µM; with NCI-H460 it was greater than 150 µM; with HL-60 [2] it was 8.8 µM. The “log K” value in data set [3] came out at 3.59; in data set [5], 3.6.
Consider `CC1(C)CCc2cc3c(=O)c4ccccc4oc3c(O)c2O1` [DIHYDRO-12-HYDROXY-2,2-DIMETHYL-2H,6H-PYRANO[3,2-B]XANTHEN-6-ONE], for which the 50% growth inhibitory concentration (GI50) in the data set with MCF7 turned out to be 39.7 µM; in data set [1], 28.9 µM; with NCI-H460 it was 40.3 µM; in the data set on HL-60 [2], 23.4 µM. The same compound gave a pIC50 with HL-60 [6] of 5.22. In addition, the “log K” value is on record as 3.28 in data set [3] and 3.35 in data set [5]. Besides, in data set [4], the solubility thermodynamic at 24 h was 0.4 µM (≈ 0.119 µg/mL).
As for `COc1cccc2c1C(=O)c1c(O)c3c(c(O)c1C2=O)C[C@@](O)(C(=O)CO)C[C@@H]3O[C@H]1C[C@H](N)[C@H](O)[C@H](C)O1` [DOXORUBICIN], the concentration for 50% growth inhibition (GI50) with MCF7 amounted to 0.0654 µM; in data set [1], 0.145 µM; in the data set with NCI-H460, 0.0641 µM; with HL-60 [2], 0.028 µM.

The values are drawn from ChEMBL document CHEMBL2384993, “Multidimensional optimization of promising antitumor xanthone derivatives” (Bioorg Med Chem, 2013).
